Measured values: patent publication US7902138B2, “Liquid detergent composition” (The Sun Products Corporation, priority 2003, dated 2011)

Tested on: Protease enzyme
Assay: Residual protease activity in liquid detergent formulation after storage at 37° C. (tetrapeptide substrate assay)
Assay type: biochemical
Settings: activity determined at 40° C., TRIS pH 9, relative to t=0; for Residual activity after 2 weeks, 0.05% BHT / Residual activity after 4 weeks, 0.05% BHT: 'base' liquid detergent formulation + 0.06% by weight perfume component + 0.05% by weight BHT; for Residual activity after 2 weeks, 0.05% BHT / Residual activity after 2 weeks, No BHT: 2 weeks storage at 37° C.; for Residual activity after 4 weeks, 0.05% BHT / Residual activity after 4 weeks, No BHT: 4 weeks storage at 37° C.; for Residual activity after 2 weeks, No BHT / Residual activity after 4 weeks, No BHT: 'base' liquid detergent formulation + 0.06% by weight perfume component
Experimental: To various samples of this ‘base’ liquid formulation 0.06% by weight based on said formulation of several types of perfume component—as indicated in the tables below—were added such that, as a result, each sample contains a different type of perfume component. To other samples of this ‘base’ formulation not only 0.06% by weight of said perfume components but also 0.05% by weight BHT (2,6-di-tert-butyl hydroxy toluene) were added.
The residual activity of the protease enzyme in all thus-formed formulations after 2 weeks and 4 weeks storage at 37° C., was determined at 40° C. in a TRIS pH 9 buffer and using tetrapeptide as substrate. For this determination, the following protocol was used:
Samples of 70 mg of the tested liquid formulation were diluted in 10.00 ml MilliQ water. 10 μl of this solution was added to an assay of 205 μl containing 74.4 mM TRIS pH9 and 0.494 mM tetrapeptide (succinyl-Ala-Ala-Pro-Phe-p-Nitroanilide). The absorbance of the tested samples at a wavelength of 450 nm was measured for 15 minutes at 40° C., using a spectrophotometer. The absolute changes in absorbance as compared to the absorbance measured on a freshly prepared calibration sample were correlated to the measured activity of such freshly prepared sample. The measured protease enzyme activity is expressed as GU/ml.
The residual enzyme activity (expressed as %) is the enzyme activity after storage of the liquid formulation concerned divided by the enzyme activity measured at t=0.
Tables 1 and 2 show the effect of the addition of 0.05% by weight of BHT on the residual enzyme activity in ‘base’ liquid detergent formulations additionally containing 0.06% by weight of the indicated perfume components, after 2 weeks storage at 37° C. respectively 4 weeks storage at 37° C.

Compound | Residual activity after 2 weeks, 0.05% BHT [%] | Residual activity after 4 weeks, 0.05% BHT [%] | Residual activity after 2 weeks, No BHT [%] | Residual activity after 4 weeks, No BHT [%]
Terpinegene G | 72 | 62 | 48 | 23
CCC(=O)/C=C/C1C(C)=CCCC1(C)C (stereo not drawn) [Alpha methylionone] | 84 | 78 | 39 | 14
CC1=CC(C)C(C=O)CC1 (centres unmarked) [Zestover] | 82 | 72 | 16 | 5
CC1=CCC(=C(C)C)CC1 [Terpinolene] | 85 | 79 | 51 | 17
CCCCCCCCCCC=CC=O [Tridecyclenaldehyde] | 70 | 54 | 14 | 4
Octenal | 68 | 46 | 13 | 3
CC(C)=C1CC[C@@H](C)CC1=O [Pulegone] | 82 | 76 | 45 | 16
CC(C=O)Cc1ccc(C(C)(C)C)cc1 (centres unmarked) [Lilial] | 80 | 68 | 39 | 9
